Results from patent US5599553A, “Local drug delivery film for periodontal treatment” (Dong Kook Pharmaceutical Co., Ltd., priority 1992, dated 1997).

How the values were obtained:
[1] = system: Actinobacillus actinomycetemcomitans; assay: Susceptibility test of antibiotics / MIC of minocycline; assay type: cell-based
Method: (§1) At first, the minimal inhibitory concentration (hereinafter it is abbreviated to MIC) of minocycline for bacilli, especially Antinobacillus actinomycetemcomitans as main bacillus and the minimum period to optimum treatment effect with MIC were examined. […] Also, it was reported by Goodson et al. that the concentration more than MIC has to be sustained to inhibit growth of periodontal bacillus for at least 48 hours, especially at least 10 days for optimum treatment effect. Accordingly, local drug delivery should sustain the concentration of minocyclne in the periodontal pocket at least 4 μg/ml for at least 48 hours, and especially more than 10 days to optimize treatment effect. So the present local drug delivery was examined to learn if it coincided with the standard or not.

[2] = system: human gingival fibroblast; assay: Cytotoxic inhibition activity, [3H]-thymidine incorporation
Method: Human gingival fibroblast was cultivated and divided into 24 multi-well dish as much as 1×10 ^5 cell/well each. Medium was chant ed next day. After 3 days, medium was removed and washed with Hank's balanced salt solution (hereinafter it is abbreviated to HBSS). […] After 2 hours, said solutions were stood at 4° C. for 10 min using ice cold 5% Trichloroacetic acid (TCA) 3 ml. After washing 3 or 4 times with TCA, removed TCA, and dissolved gingival fibroblast by 0.5N-NaOH 1 ml at 37° C. for 30 min. 50 μl of said solution was taken, added 4 ml of cocktail solution to said solution and count per minute was measured by liquid scintillation counter.

[3] = system: human gingival fibroblast; assay: Rapid colorimetric assay for cellular growth survival (MTT)
Method: The floating solution obtained was devided into microtest plate well (obtained from Nuck, Denmark) as much as 2.5×10cell/well using the standard blood corpuscle calculation method so that MEM containing 10% fatal calf serum, peniciline 10 units/ml, streptomycine 100 μg/ml and fungizone 0.2 μl/ml became containing 2500, 5000, 10000, 15000, 20000, and 30000 cell per 200 ml and the resulting solution was incubated. Culture solution was changed next day. After 2 days, culture solution was removed and washed with HBSS. […] This was incubated in incubator at 37° C. […] As control group, MEM culture solution well was used every test. All test results were calculated as percentage unit to control group.

[4] = system: 139 kinds of tested bacilli; assay: Susceptibility test of antibiotics to bacilli in mouth; assay type: cell-based
Method: as §1

## CN(C)c1ccc(O)c2c1C[C@H]1C[C@H]3[C@H](N(C)C)C(=O)C(C(N)=O)=C(O)[C@@]3(O)C(=O)C1=C2O [minocycline]
[1]
  break point of minocycline concentration to periodontal treatment: 2 to 4 µg/mL
[1]; Aggregatibacter actinomycetemcomitans, read-out: concentration of minocycline at which susceptibility is shown
  MIC: 2 to 4 mg/L
[2]; 160 μg/ml to 2560 μg/ml
  growth of gingival fibroblast: growth of gingival fibroblast was not inhibited
[2]; observation for 7 days
  growth inhibition of gingival fibroblast: statistical singnificance about growth inhibitory of gingival fibroblast was not observed
[3]
  difference in cell activity according to minocycline concentration: difference in cell activity according to concentration of minocycline was not observed
[4]
  tested bacilli that showed susceptibility: 98%
